Measurements as given in US8680159B2, “Bradykinin 1 receptor modulating compounds” (Gruenenthal GmbH, priority 2010, dated 2014).

Tests used:
[1] = molecular target: T1, B1R receptor of the rat (CHO K1 cells stably transfected with the B1R gene of the rat) (Rattus norvegicus, UniProt P97583); assay: Functional study on the bradykinin receptor 1 (B1R), Ca2+ fluorescence (Fluo-4) FLIPR/Novostar assay, rB1R cells; format: cell-based; details: CHO-K1, 10 μM, read-out: % inhibition (rat B1R) at 10 μM
T1 construct: expressed in transfected cells; host or cells: CHO K1 cells (Chinese hamster ovary), stably transfected
T1 sequence (P97583 1-337): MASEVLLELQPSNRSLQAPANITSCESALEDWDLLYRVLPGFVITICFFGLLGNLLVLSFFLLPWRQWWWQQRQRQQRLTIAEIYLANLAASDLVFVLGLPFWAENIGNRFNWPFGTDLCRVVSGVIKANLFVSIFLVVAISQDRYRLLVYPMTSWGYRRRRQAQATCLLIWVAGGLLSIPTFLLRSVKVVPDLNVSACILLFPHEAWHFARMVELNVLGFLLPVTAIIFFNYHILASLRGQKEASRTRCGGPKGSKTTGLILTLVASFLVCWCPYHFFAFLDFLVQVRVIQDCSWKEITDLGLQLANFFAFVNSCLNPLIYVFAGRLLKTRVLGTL
How it was run: (§1)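 Test compounds (10 μM) were added first and the Ca2+ rise was scored as % activation against Lys-Des-Arg9-bradykinin (≥50 nM, human) or Des-Arg9-bradykinin (≥1 μM, rat). After 6-20 min, the matching agonist was given at its EC80, and % inhibition relative to maximal achievable inhibition was calculated.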

[2] = molecular target: T2, human B1R receptor (CHO K1 cells stably transfected with the human B1R gene) (Homo sapiens, UniProt P46663); assay: Functional study on the bradykinin receptor 1 (B1R), Ca2+ fluorescence (Fluo-4) FLIPR/Novostar assay, hB1R cells; format: cell-based; details: CHO-K1, read-out: % inhibition (human B1R) at 10 μM
T2 construct: expressed in transfected cells; host or cells: CHO K1 cells (Chinese hamster ovary), stably transfected
T2 sequence (P46663 1-353): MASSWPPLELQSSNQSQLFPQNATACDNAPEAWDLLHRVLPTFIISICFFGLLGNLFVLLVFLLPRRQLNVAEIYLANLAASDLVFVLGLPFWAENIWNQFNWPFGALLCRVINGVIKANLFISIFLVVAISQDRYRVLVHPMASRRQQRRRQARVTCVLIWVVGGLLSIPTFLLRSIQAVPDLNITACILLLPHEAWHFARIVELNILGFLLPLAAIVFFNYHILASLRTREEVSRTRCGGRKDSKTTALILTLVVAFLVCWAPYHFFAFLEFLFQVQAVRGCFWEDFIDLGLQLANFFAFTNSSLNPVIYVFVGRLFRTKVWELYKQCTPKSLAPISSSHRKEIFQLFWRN
How it was run: as §1

SMILES | inhibition at 10 µM [1] [%] | inhibition at 10 µM [2] [%]
CN(C(=O)c1ccc2c(c1)[C@H](NC(=O)[C@H]1CCCc3ccccc31)CC2)C1CCN(c2ccncc2)CC1 [Example H-69, (1S)-N-[(1R)-6-[Methyl-(1-pyridin-4-yl-piperidin-4-yl)-carbamoyl]-2,3-dihydro-1H-inden-1-yl]-1,2,3,4-tetrahydro-naphthalene-1-carboxylic acid amide] | 99 | 100
CN(C(=O)c1ccc2c(c1)[C@H](NC(=O)[C@@H]1CCCc3ccccc31)CC2)C1CCN(c2ccncc2)CC1 [Example H-70, N-[(1R)-6-[Methyl-(1-pyridin-4-yl-piperidin-4-yl)-carbamoyl]-2,3-dihydro-1H-inden-1-yl]-1,2,3,4-tetrahydro-naphthalene-1-carboxylic acid amide] | 96 | 100
CN(C(=O)c1ccc2c(c1)[C@H](NC(=O)c1ccccc1)CC2)C1CCN(c2ccncc2)CC1 [Example H-71, (3R)-3-Benzoylamino-N-methyl-N-(1-pyridin-4-yl-piperidin-4-yl)-2,3-dihydro-1H-indene-5-carboxylic acid amide] | 99 | 100
CN(C(=O)c1ccc2c(c1)[C@H](NS(=O)(=O)c1ccc(F)cc1)CC2)C1CCN(c2ccncc2)CC1 [Example H-72, (3R)-3-[[(4-Fluorophenyl)sulfonyl]amino]-N-methyl-N-(1-pyridin-4-yl-piperidin-4-yl)-2,3-dihydro-1H-indene-5-carboxylic acid amide] | 104 | 99
CN(C(=O)c1ccc2c(c1)[C@H](NC(=O)c1cccc3ccccc13)CC2)C1CCN(c2ccncc2)CC1 [Example H-73, N-[(1R)-6-[Methyl-(1-pyridin-4-yl-piperidin-4-yl)-carbamoyl]-2,3-dihydro-1H-Inden-1-yl]-naphthalene-1-carboxylic acid amide] | 104 | 100
CN(C(=O)c1ccc2c(c1)[C@H](NS(=O)(=O)c1ccccc1)CC2)C1CCN(c2ccncc2)CC1 [Example H-74, (3R)-3-(Benzenesulfonamido)-N-methyl-N-(1-pyridin-4-yl-piperidin-4-yl)-2,3-dihydro-1H-indene-5-carboxylic acid amide] | 104 | 100
CN(C(=O)c1ccc2c(c1)[C@H](NC(=O)c1ccc(F)cc1)CC2)C1CCN(c2ccncc2)CC1 [Example H-75, (3R)-3-[(4-Fluoro-benzoyl)amino]-N-methyl-N-(1-pyridin-4-yl-piperidin-4-yl)-2,3-dihydro-1H-indene-5-carboxylic acid amide] | 105 | 100
CN(C(=O)c1ccc2c(c1)[C@H](NC(=O)C1CCOCC1)CC2)C1CCN(c2ccncc2)CC1 [Example H-76, N-[(1R)-6-[Methyl-(1-pyridin-4-yl-piperidin-4-yl)-carbamoyl]-2,3-dihydro-1H-yl)-1-2,3-tetrahydro-pyran-4-carboxylic acid amide] | 107 | 95
CCN(C(=O)c1ccc2c(c1)[C@H](NC(=O)c1ccccc1Cl)CC2)C1CCN(c2ccncc2)CC1 [Example H-77, (3R)-3-[(2-Chloro-benzoyl)amino]-N-ethyl-N-(1-pyridin-4-yl-piperidin-4-yl)-2,3-dihydro-1H-indene-5-carboxylic acid amide] | 104 | 100
CN(C(=O)c1ccc2c(c1)[C@H](NC(=O)c1ccccc1Cl)CC2)C1CCN(c2ccc(F)cc2)CC1 [Example H-78, (3R)-3-[(2-Chloro-benzoyl)amino]-N-[1-(4-fluorophenyl)-pipendin-4-yl]-N-methyl-2,3-dihydro-1H-indene-5-carboxylic acid amide] | 85 | 31
